Active and inactive are the calls of the source. The calls are words filed in the database; no cut-off is given here.
Tests used:
P338 [1] = assay: Antitumor activity against P-338 leukemia in mice.; format: functional, Mus musculus
P338 [2] = assay: Compound was evaluated for antitumor activity against P-338 leukemia in mice, active dose range of the compound; Lowest dose administered, dose range was 2.5-40 mg/kg; format: functional, Mus musculus
L1210 leukemia (mouse) [3] = assay: Compound was evaluated for antitumor activity against L1210 leukemia in mice at the dose of 40 mg/kg; T/C=Survival time of treated/control animals*100
P338 [4] = assay: Compound was evaluated for antitumor activity against P-338 leukemia in mice, active dose range of the compound; Lowest dose to highest dose administered, dose range was 2.5-40 mg/kg; format: functional, Mus musculus
P338 [5] = assay: Compound was evaluated for antitumor activity against P-338 leukemia in mice at the dose of 32 mg/kg; T/C=Survival time of treated/control animals*100; format: functional, Mus musculus
P338 [6] = assay: Compound was evaluated for antitumor activity against P-338 leukemia in mice.a ctive dose range was 8-32 mg/kg; format: functional, Mus musculus
P338 [7] = assay: Compound was evaluated for antitumor activity against P-338 leukemia in mice at the dose of 16 mg/kg; T/C=Survival time of treated/control animals*100; format: functional, Mus musculus
P338 [8] = assay: Compound was evaluated for antitumor activity against P-338 leukemia in mice, active dose range of the compound; Lowest dose to highest dose administered, dose range was 2-32 mg/kg; format: functional, Mus musculus
P338 [9] = assay: Compound was evaluated for antitumor activity against P-338 leukemia in mice at the dose of 1.6 mg/kg; T/C=Survival time of treated/control animals*100; format: functional, Mus musculus
P338 [10] = assay: Compound was evaluated for antitumor activity against P-338 leukemia in mice, active dose range of the compound; Lowest dose administered, dose range was 0.4-1.6 mg/kg; format: functional, Mus musculus
P338 [11] = assay: Compound was evaluated for antitumor activity against P-338 leukemia in mice, active dose range of the compound; Lowest dose administered, dose range was 1.25-2.5 mg/kg; format: functional, Mus musculus
L1210 leukemia (mouse) [12] = assay: Compound was evaluated for antitumor activity against L1210 leukemia in mice at the dose of 2.5 mg/kg; T/C=Survival time of treated/control animals*100
P338 [13] = assay: Compound was evaluated for antitumor activity against P-338 leukemia in mice at the dose of 20 mg/kg; T/C=Survival time of treated/control animals*100; format: functional, Mus musculus
P338 [14] = assay: Compound was evaluated for antitumor activity against P-338 leukemia in mice, active dose range of the compound; Lowest dose to highest dose administered, dose range was 5-40 mg/kg; format: functional, Mus musculus
L1210 leukemia (mouse) [15] = assay: Antitumor activity against L1210 leukemia in mice
P338 [16] = assay: Compound was evaluated for antitumor activity against P-338 leukemia in mice; T/C=Survival time of treated/control animals*100; Inactive; format: functional; details: Mus musculus
P338 [17] = assay: Compound was evaluated for antitumor activity against P-338 leukemia in mice, active dose range of the compound; Lowest dose to highest dose administered, dose range was 7.5-60 mg/kg; format: functional, Mus musculus
P338 [18] = assay: Compound was evaluated for antitumor activity against P-338 leukemia in mice at the dose of 60 mg/kg; T/C=Survival time of treated/control animals*100; format: functional, Mus musculus
P338 [19] = assay: Compound was evaluated for antitumor activity against P-338 leukemia in mice, active dose range of the compound; Lowest dose administered, dose range was 7.5-15.5 mg/kg; format: functional, Mus musculus
P338 [20] = assay: Compound was evaluated for antitumor activity against P-338 leukemia in mice at the dose of 25 mg/kg; T/C=Survival time of treated/control animals*100; format: functional, Mus musculus
P338 [21] = assay: Compound was evaluated for antitumor activity against P-338 leukemia in mice. toxic dose range of the compound; Highest dose administered; format: functional, Mus musculus
P338 [22] = assay: Compound was evaluated for antitumor activity against P-338 leukemia in mice, active dose range of the compound; Lowest dose administered, dose range was 3.12-25 mg/kg; format: functional, Mus musculus
P338 [23] = assay: Compound was evaluated for antitumor activity against P-338 leukemia in mice, active dose range of the compound; Lowest dose administered, dose range was 4-16 mg/kg; format: functional, Mus musculus
P338 [24] = assay: Compound was evaluated for antitumor activity against P-338 leukemia in mice at the dose of 8 mg/kg; T/C=Survival time of treated/control animals*100; format: functional, Mus musculus
P338 [25] = assay: Compound was evaluated for antitumor activity against P-338 leukemia in mice; T/C=Survival time of treated/control animals *100; Inactive; format: functional; details: Mus musculus
P338 [26] = assay: Compound was evaluated for antitumor activity against P-338 leukemia in mice at the dose of 2 mg/kg; T/C=Survival time of treated/control animals*100; format: functional, Mus musculus
P338 [27] = assay: Compound was evaluated for antitumor activity against P-338 leukemia in mice, active dose range of the compound; Lowest dose administered, dose range was 2.0-4.0 mg/kg; format: functional, Mus musculus
L1210 leukemia (mouse) [28] = assay: Compound was evaluated for antitumor activity against L1210 leukemia in mice, active dose range of the compound; Lowest dose administered, dose range was 2.5-5 mg/kg
P338 [29] = assay: Compound was evaluated for antitumor activity against P-338 leukemia in mice at the dose of 4 mg/kg; T/C=Survival time of treated/control animals*100; format: functional, Mus musculus
P338 [30] = assay: Compound was evaluated for antitumor activity against P-338 leukemia in mice at the dose of 3.1 mg/kg; T/C=Survival time of treated/control animals*100; format: functional, Mus musculus
P338 [31] = assay: Compound was evaluated for antitumor activity against P-338 leukemia in mice, toxic dose range of the compound; format: functional, Mus musculus
P338 [32] = assay: Compound was evaluated for antitumor activity against P-338 leukemia in mice, active dose range of the compound; Lowest dose administered, dose range was 0.4-3.1 mg/kg; format: functional, Mus musculus
L1210 leukemia (mouse) [33] = assay: Compound was evaluated for antitumor activity against L1210 leukemia in mice at the dose of 10 mg/kg; T/C=Survival time of treated/control animals*100
L1210 leukemia (mouse) [34] = assay: Compound was evaluated for antitumor activity against L1210 leukemia in mice, active dose range of the compound; Lowest dose administered, dose range was 2.5-20 mg/kg

CC[C@@]1(O)C(=O)OCc2c1cc1n(c2=O)Cc2cc3cccc([N+](=O)[O-])c3nc2-1
No. of cures (P338 [1]): 0 | Active dose range (P338 [2]): 2.5 mg/kg | T/C (L1210 leukemia (mouse) [3]): 151%

CC[C@@]1(O)C(=O)OCc2c1cc1n(c2=O)Cc2cc3c(NC(C)=O)c(O)ccc3nc2-1
No. of cures (P338 [1]): 0 | Active dose range (P338 [4]): 2.5 mg/kg | T/C (L1210 leukemia (mouse) [3]): 220%

CCC1(O)C(=O)OCc2c1cc1n(c2=O)Cc2cc3cccnc3nc2-1 (stereo not drawn)
T/C (P338 [5]): 175% | Active dose range (P338 [6]): 8 mg/kg | No. of cures (P338 [1]): 0

CCN(CC)CCOc1ccc2nc3c(cc2c1)Cn1c-3cc2c(c1=O)COC(=O)[C@]2(O)CC.Cl
T/C (P338 [7]): 183% | No. of cures (P338 [1]): 0 | Active dose range (P338 [8]): 2 mg/kg

CC[C@@]1(O)C(=O)OCc2c1cc1n(c2=O)Cc2cc3cc(OC)ccc3nc2-1
T/C (P338 [9]): 167% | No. of cures (P338 [1]): 0 | Active dose range (P338 [10]): 0.4 mg/kg

CCC1(O)C(=O)OCc2c1cc1n(c2=O)Cc2cc3cnccc3nc2-1 (stereo not drawn)
No. of cures (P338 [1]): 0 | Active dose range (P338 [11]): 1.25 mg/kg | T/C (L1210 leukemia (mouse) [12]): 162%

CC[C@@]1(O)C(=O)OCc2c1cc1n(c2=O)Cc2cc3c([N+](=O)[O-])c(OC)ccc3nc2-1
No. of cures (P338 [1]): 0 | Active dose range (P338 [4]): 2.5 mg/kg | T/C (L1210 leukemia (mouse) [3]): 160%

CC[C@@]1(O)C(=O)OCc2c1cc1n(c2=O)Cc2cc3c(N)c(OC)ccc3nc2-1
No. of cures (P338 [1]): 0 | T/C (L1210 leukemia (mouse) [3]): 186%

CC[C@@]1(O)C(=O)OCc2c1cc1n(c2=O)Cc2cc3c([N+](=O)[O-])c(O)ccc3nc2-1
T/C (P338 [13]): 131% | No. of cures (P338 [1]): 0 | Active dose range (P338 [4]): 2.5 mg/kg

CCC1(O)C(=O)OCc2c1cc1n(c2=O)Cc2cc3cc(NC(C)=O)ccc3nc2-1 (stereo not drawn)
No. of cures (P338 [1]): 1 | Active dose range (P338 [14]): 5 mg/kg | KE (log cell kill) (L1210 leukemia (mouse) [15]): > 5.86 | T/C (L1210 leukemia (mouse) [3]): 318%

CC[C@](O)(C(=O)[O-])c1cc2n(c(=O)c1CO)Cc1cc3ccccc3nc1-2.[Na+]
T/C (L1210 leukemia (mouse) [3]): 215%

CC[C@@]1(O)C(=O)OCc2c1cc1n(c2=O)Cc2cc3cc(OCC(=O)O)ccc3nc2-1
T/C (P338 [16]): inactive

CC[C@@]1(O)C(=O)OCc2c1cc1n(c2=O)Cc2cc3cccc(N)c3nc2-1
T/C (P338 [16]): inactive

CCC1(O)C(=O)OCc2c1cc1n(c2=O)Cc2cc3ccc(O)cc3nc2-1 (racemic)
Active dose range (P338 [17]): 7.5 mg/kg | No. of cures (P338 [1]): 3 | T/C (P338 [18]): 357%

CCC1(O)C(=O)OCc2c1cc1n(c2=O)Cc2cc3cc([N+](=O)[O-])ccc3nc2-1 (racemic)
No. of cures (P338 [1]): 1 | Active dose range (P338 [19]): 7.5 mg/kg | KE (log cell kill) (L1210 leukemia (mouse) [15]): > 5.86

CCC1(O)C(=O)OCc2c1cc1n(c2=O)Cc2cc3sccc3nc2-1 (racemic)
T/C (P338 [20]): 193% | No. of cures (P338 [1]): 0 | Toxic dose (P338 [21]): 50 mg/kg | Active dose range (P338 [22]): 3.12 mg/kg

CCC1(O)C(=O)OCc2c1cc1n(c2=O)Cc2cc3cc(N)ccc3nc2-1 (racemic)
No. of cures (P338 [1]): 3 | Toxic dose (P338 [21]): 32 mg/kg | Active dose range (P338 [23]): 4 mg/kg | T/C (P338 [24]): 329% | KE (log cell kill) (L1210 leukemia (mouse) [15]): > 5.86

CCC1(O)C(=O)OCc2c1cc1n(c2=O)Cc2cc3cc(OC)c(OC)cc3nc2-1 (racemic)
Toxic dose (P338 [21]): >50 mg/kg | T/C (P338 [25]): inactive

CCC1(O)C(=O)OCc2c1cc1n(c2=O)Cc2cc3cc4c(cc3nc2-1)OCO4 (racemic)
T/C (P338 [26]): 325% | No. of cures (P338 [1]): 2 | Active dose range (P338 [27]): 2 mg/kg | KE (log cell kill) (L1210 leukemia (mouse) [15]): > 5.97

CC[C@@]1(O)C(=O)OCc2c1cc1n(c2=O)Cc2cc3c(N)cccc3nc2-1 [9-AMINOCAMPTOTHECIN]
No. of cures (P338 [1]): 4 | KE (log cell kill) (L1210 leukemia (mouse) [15]): > 5.86 | T/C (L1210 leukemia (mouse) [12]): 348% | Active dose range (L1210 leukemia (mouse) [28]): 2.5 mg/kg

CC[C@@]1(O)C(=O)OCc2c1cc1n(c2=O)Cc2cc3ccccc3nc2-1 [CAMPTOTHECIN]
T/C (P338 [29]): 197%

CC[C@@]1(O)C(=O)OCc2c1cc1n(c2=O)Cc2cc3cc(O)ccc3nc2-1 [HYDROXYCAMPTOTHECIN]
T/C (P338 [30]): 297% | No. of cures (P338 [1]): 0 | Toxic dose (P338 [31]): 6.25 mg/kg | Active dose range (P338 [32]): 0.4 mg/kg

CC[C@@]1(O)C(=O)OCc2c1cc1n(c2=O)Cc2cc3c([N+](=O)[O-])cccc3nc2-1 [RUBITECAN]
No. of cures (P338 [1]): 5 | Toxic dose (P338 [21]): 40 mg/kg | KE (log cell kill) (L1210 leukemia (mouse) [15]): > 5.86 | T/C (L1210 leukemia (mouse) [33]): 348% | Active dose range (L1210 leukemia (mouse) [34]): 2.5 mg/kg
